Source: US20240398788A1, “METHODS OF TREATING CANCER USING HSF1 PATHWAY INHIBITORS” (Institute of Cancer Research, priority 2021, published 2024)

Legend:
[1] = test system: SK-OV-3 ovarian cancer xenograft (ARID1A mutation); assay: SK-OV-3 ovarian cancer xenograft efficacy study; assay type: in vivo, athymic nude mice
Protocol: The tumor was identified as harboring an ARID1A mutation. […] Control and 35 mg/kg group n=10. Horizontal black line is 35 mg/kg group tumour volume on Day 0.
(§1) The in vivo efficacy of Compound A was investigated in xenograft tumours in athymic nude mice with a focus on ovarian cancers. […] Of the seven cell lines, SK-OV-3; TOV-21G, OVISE, and IGROV1 were identified as harboring an ARID1A mutation, while OVCAR-5, ES-2, and RMG1 were ARID1A wildtype.
(§2) Once the tumours were established, mice were randomised into vehicle control and treatment groups. Mice in both the vehicle control and treatment groups that were removed during the course of the study due to spontaneous or treatment derived tumour regression, tumour growth approaching license limits, tumour ulceration or loss of condition were excluded from the final analysis of the mean tumour volume and standard error of the mean and up to the point they were removed from the study. The number of mice undergoing complete tumour regression in the treatment group is noted where applicable.
(§3) Two groups of 12 female NCr nude mice (3 groups of 10 for SK-OV-3) were injected with 3-5×10^6 cells of one of the above cancer cell lines, subcutaneously. […] Body weights were taken daily and animals were monitored for signs of toxicity. […]

[2] = test system: TOV-21G ovarian cancer xenograft (ARID1A mutation); assay: TOV-21G ovarian cancer xenograft efficacy study; assay type: in vivo, NCr nude mice; details: TOV-21G xenograft, 35 mg/kg oral once daily, 5/7 days, 21/19 doses/study days
Protocol: The tumor was identified as harboring an ARID1A mutation. […] Vehicle control group n=8 and 35 mg/kg dose group n=11.
as §1, §2, §3

[3] = test system: OVISE ovarian cancer xenograft (ARID1A mutation); assay: OVISE ovarian cancer xenograft efficacy study; assay type: in vivo, NCr nude mice; details: 35 mg/kg oral once daily, 5/7 days, 38/52 doses/study days
Text: as §1, §2
(§4) Two groups of 12 female NCr nude mice (3 groups of 10 for SK-OV-3) were injected with 3-5×10^6 cells of one of the above cancer cell lines, subcutaneously. […] Body weights were taken daily and animals were monitored for signs of toxicity. To evaluate drug levels the animals were euthanised in batches of 3 to 4 at 2, 6 and 24 hours after the last dose and terminal plasma and tumour samples collected for PK analysis.

[4] = test system: IGROV1 ovarian cancer xenograft (ARID1A mutation); assay: IGROV1 ovarian cancer xenograft efficacy study; assay type: in vivo, NCr nude mice; details: 35 mg/kg oral once daily, intermittent, 11/15 doses/study days
Text: as §1, §2, §4

[5] = test system: ES-2 ovarian cancer xenograft (ARID1A wildtype)
Text: as §2, §4

[6] = test system: OVCAR-5 ovarian cancer xenograft (ARID1A wildtype)
Text: as §2, §4

[7] = test system: RMG1 ovarian cancer xenograft (ARID1A wildtype)
Text: as §2, §4

SMILES: CCN1CCN(Cc2ccc3cc(C(=O)Nc4cc(NC(=O)c5ccc6c(c5)OCCO6)ccc4F)ccc3n2)CC1 [Compound A, N-(5-(2,3-Dihydrobenzo[b][1,4]dioxine-6-carboxamido)-2-fluorophenyl)-2-((4-ethylpiperazin-1-yl)methyl)quinoline-6-carboxamide]
- sensitivity in xenograft models (in words) ([1]; SK-OV-3, ARID1A mutated, compared with the other six xenografts): most sensitive cell line in xenograft models
- TGI (%) ([1]; SK-OV-3 xenograft, 35 mg/kg oral once daily, continuous, 20/20 doses/study days): 120%
- TGI (%) [2]: 81%
- TGI (%) [3]: 70%
- TGI (%) [4]: 56%
- efficacy in xenograft model (in words) ([5]; ES-2 ARID1A wild type model, criterion TGI>50%): did not meet the criteria for efficacy
- TGI (%) ([5]; ES-2 xenograft, 35 mg/kg oral once daily, 5/7 days, 12/17 doses/study days): 12%
- efficacy in xenograft model (in words) ([6]; OVCAR-5 ARID1A wild type model, criterion TGI>50%): did not meet the criteria for efficacy
- TGI (%) ([6]; OVCAR-5 xenograft, 35 mg/kg oral once daily, 5/7 days, 21/27 doses/study days): 27%
- inhibition of xenograft tumour growth (in words) ([7]; RMG1 ARID1A wildtype model): No inhibition of xenograft tumour growth
- TGI (%) ([7]; RMG1 xenograft, 35 mg/kg oral once daily, 5/7 days, 15/19 doses/study days): −3.0%
